Here are results for 16 molecules from patent US12678446B2 (PFIZER INC., priority 2020, dated 2026).

Some results are limits rather than exact numbers.

Data set [1] deals with RSV (RSV A2 ECACC, 0709161v). As to the kind of experiment: RSV plaque reduction assay. Format: cell-based, respiratory syncytial virus. Conditions: human respiratory syncytial virus, HepG2, read-out: RSV A2 Plaque EC50, RSV A2 in Hep-G2 cells; mean of at least two experiments unless noted (n = 1). Summed up:
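Hep-G2 monolayers infected with 100 PFU/well RSV A2 premixed with eight serial compound dilutions (2 h, 37° C.), then kept 2 days under CMC overlay with compound in DMEM/2% FBS. Plaques immunostained (HRP/TrueBlue) and counted; % infection versus virus control gives EC50, mean of at least two experiments, rounded.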

The next data set in a line: cell toxicity CC50. Format: cell-based. Conditions: human; Hep-G2 cells; mean of at least two experiments; read-out: Cell Cytotoxicity CC50.

Consider `CCc1ccc(-c2nn3c(c2C(=O)N[C@H]2N=C(c4ccccc4)c4ccccc4NC2=O)O[C@@H](C)CC3)cn1` [Example 132, (5S)-2-(6-Ethylpyridin-3-yl)-5-methyl-N-[(3S)-2-oxo-5-phenyl-1,3-dihydro-1,4-benzodiazepin-3-yl]-6,7-dihydro-5H-pyrazolo[5,1-b][1,3]oxazine-3-carboxamide], for which the EC50 in data set [1] turned out to be 72 nM. In the data set “cell toxicity CC50”, the CC50 was above 25000 nM.
Turning to `O=C(N[C@H]1N=C(c2ccccc2)c2cccc(F)c2NC1=O)c1c(-c2cnn(CC(F)(F)F)c2)nn2c1OCCC2` [Example 150, N-[(3S)-9-fluoro-2-oxo-5-phenyl-1,3-dihydro-1,4-benzodiazepin-3-yl]-2-[1-(2,2,2-trifluoroethyl)pyrazol-4-yl]-6,7-dihydro-5H-pyrazolo[5,1-b][1,3]oxazine-3-carboxamide], in data set [1], the EC50 is 61 nM. Besides, the CC50 in the data set “cell toxicity CC50” was above 25000 nM.
For `CCc1ccc(-c2nn3c(c2C(=O)N[C@H]2N=C(c4ccccc4)c4cccc(F)c4NC2=O)O[C@H](C)CC3)c(F)c1` [Example 75, (5R)-2-(4-Ethyl-2-fluorophenyl)-5-methyl-N-[(3S)-9-fluoro-2-oxo-5-phenyl-1,3-dihydro-1,4-benzodiazepin-3-yl]-6,7-dihydro-5H-pyrazolo[5,1-b][1,3]oxazine-3-carboxamide], in that order: 158 nM and above 25000 nM.
On the same counts, the results for `CCn1cc(-c2nn3c(c2C(=O)N[C@H]2N=C(c4ccccc4)c4cccc(F)c4NC2=O)O[C@@H](C)CC3)cn1` [Example 158, (5S)-2-(1-Ethylpyrazol-4-yl)-N-[(3S)-9-fluoro-2-oxo-5-phenyl-1,3-dihydro-1,4-benzodiazepin-3-yl]-5-methyl-6,7-dihydro-5H-pyrazolo[5,1-b][1,3]oxazine-3-carboxamide] are 48 nM and above 25000 nM.
On the same counts, the results for `C[C@@H]1CCn2nc(-c3ccc(S(C)(=O)=O)cc3F)c(C(=O)N[C@H]3N=C(c4ccccc4)c4cccc(F)c4NC3=O)c2O1` [Example 137, (5R)-2-(2-Fluoro-4-methylsulfonylphenyl)-N-[(3S)-9-fluoro-2-oxo-5-penyl-1,3-dihydro-1,4-benzodiazepin-3-yl]-5-methyl-6,7-dihydro-5H-pyrazolo[5,1-b][1,3]oxazine-3-carboxamide] are 15 nM and above 25000 nM.
`C[C@@H]1CCn2nc(-c3ccccc3)c(C(=O)N[C@H]3N=C(c4ccccc4)c4cccc(F)c4NC3=O)c2O1` [Example 81, (5R)-5-Methyl-2-phenyl-N-[(3S)-9-fluoro-2-oxo-5-phenyl-1,3-dihydro-1,4-benzodiazepin-3-yl]-6,7-dihydro-5H-pyrazolo[5,1-b][1,3]oxazine-3-carboxamide]: the EC50 in data set [1] turned out to be 84 nM. For the same molecule, the CC50 in the data set “cell toxicity CC50” was above 25000 nM.
For `C[C@@H]1CCn2nc(-c3cnn(C4CC4)c3)c(C(=O)N[C@H]3N=C(c4ccccc4)c4ccccc4NC3=O)c2O1` [Example 125, (5R)-2-(1-Cyclopropylpyrazol-4-yl)-5-methyl-N-[(3S)-2-oxo-5-phenyl-1,3-dihydro-1,4-benzodiazepin-3-yl]-6,7-dihydro-5H-pyrazolo[5,1-b][1,3]oxazine-3-carboxamide], in that order: 70 nM and above 25000 nM.
For `CN1CCN(CC2COc3c(C(=O)N[C@H]4N=C(c5ccccc5)c5cccc(F)c5NC4=O)c(-c4ccccc4F)nn3C2)CC1` (stereo partly drawn) [Example 172, N-[(3S)-9-fluoro-2-oxo-5-phenyl-1,3-dihydro-1,4-benzodiazepin-3-yl]-2-(2-fluorophenyl)-6-[(4-methylpiperazin-1-yl)methyl]-6,7-dihydro-5H-pyrazolo[5,1-b][1,3]oxazine-3-carboxamide], the EC50 in data set [1] is 235 nM. Besides, the CC50 in “cell toxicity CC50” was above 19900 nM.
As to `C[C@H]1CCn2nc(-c3ccc(N4C[C@H]5C[C@@H]4CO5)nc3)c(C(=O)N[C@H]3N=C(c4ccccc4)c4cccc(F)c4NC3=O)c2O1` [Example 94, (5S)-5-Methyl-N-[(3S)-9-fluoro-2-oxo-5-phenyl-1,3-dihydro-1,4-benzodiazepin-3-yl]-2-[6-[(1R,4R)-2-oxa-5-azabicyclo[2.2.1]heptan-5-yl]pyridin-3-yl]-6,7-dihydro-5H-pyrazolo[5,1-b][1,3]oxazine-3-carboxamide], in data set [1], the EC50 was 44 nM. In the data set “cell toxicity CC50”, the half-maximal cytotoxic concentration (CC50) is above 25000 nM.
For `O=C(N[C@H]1N=C(c2ccccc2)c2ccccc2NC1=O)c1c(-c2ccc(NC3CC3)nc2F)nn2c1OCCC2` [Example 44, 2-[6-(Cyclopropylamino)-2-fluoropyridin-3-yl]-N-[(3S)-2-oxo-5-phenyl-1,3-dihydro-1,4-benzodiazepin-3-yl]-6,7-dihydro-5H-pyrazolo[5,1-b][1,3]oxazine-3-carboxamide], in that order: 55 nM and above 25000 nM.
On the same counts, the results for `C[C@@H]1CCn2nc(-c3ccc(CC(C)(C)O)nc3)c(C(=O)N[C@H]3N=C(c4ccccc4)c4cccc(F)c4NC3=O)c2O1` [Example 85, (5R)-2-[6-(2-Hydroxy-2-methylpropyl)pyridin-3-yl]-5-methyl-N-[(3S)-9-fluoro-2-oxo-5-phenyl-1,3-dihydro-1,4-benzodiazepin-3-yl]-6,7-dihydro-5H-pyrazolo[5,1-b][1,3]oxazine-3-carboxamide] are 121 nM and above 25000 nM.
For `Cc1nn(C)cc1-c1nn2c(c1C(=O)N[C@H]1N=C(c3ccccc3)c3cccc(F)c3NC1=O)O[C@H](C)CC2` [Example 115, (5R)-2-(1,3-Dimethylpyrazol-4-yl)-N-[(3S)-9-fluoro-2-oxo-5-phenyl-1,3-dihydro-1,4-benzodiazepin-3-yl]-5-methyl-6,7-dihydro-5H-pyrazolo[5,1-b][1,3]oxazine-3-carboxamide], in data set [1], the EC50 is 226 nM. The CC50 in the data set “cell toxicity CC50” was above 25000 nM.
For `C[C@@H]1Cn2nc(-c3ccccc3F)c(C(=O)N[C@H]3N=C(c4ccccc4)c4ccccc4NC3=O)c2O1` [Example 202, (2R)-6-(2-Fluorophenyl)-2-methyl-N-[(3S)-2-oxo-5-phenyl-1,3-dihydro-1,4-benzodiazepin-3-yl]-2,3-dihydropyrazolo[5,1-b][1,3]oxazole-7-carboxamide], in that order: 127 nM and above 25000 nM.
On the same counts, the results for `CCS(=O)(=O)c1ccc(-c2nn3c(c2C(=O)N[C@H]2N=C(c4ccccc4)c4cccc(F)c4NC2=O)O[C@H](C)CC3)c(F)c1` [Example 197, (5R)-2-(4-Ethylsulfonyl-2-fluorophenyl)-N-[(3S)-9-fluoro-2-oxo-5-phenyl-1,3-dihydro-1,4-benzodiazepin-3-yl]-5-methyl-6,7-dihydro-5H-pyrazolo[5,1-b][1,3]oxazine-3-carboxamide] are 97 nM and above 25000 nM.
On the same counts, the results for `O=C(N[C@H]1N=C(c2ccccc2)c2cccc(F)c2NC1=O)c1c(-c2cnn(C3CCOCC3)c2)nn2c1OCCC2` [Example 152, N-[(3S)-9-Fluoro-2-oxo-5-phenyl-1,3-dihydro-1,4-benzodiazepin-3-yl]-2-[1-(oxan-4-yl)pyrazol-4-yl]-6,7-dihydro-5H-pyrazolo[5,1-b][1,3]oxazine-3-carboxamide] are 84 nM and above 25000 nM.
In the case of `C[C@@H]1CCn2nc(-c3ccc(N4CC5(COC5)C4)nc3F)c(C(=O)N[C@H]3N=C(c4ccccc4)c4cccc(F)c4NC3=O)c2O1` (single isomer, unassigned) [Example 91], in data set [1], the EC50 was 239 nM. In addition, the CC50 in the data set “cell toxicity CC50” is above 25000 nM.
